Test results reported in ChEMBL document CHEMBL3886171, “Compounds and compositions for the inhibition of NAMPT” (2015).

Molecular target: Nicotinamide phosphoribosyltransferase (Homo sapiens, UniProt P43490)
Assay: Biochemical Inhibition Assay: The NAMPT enzymatic reactions were carried out in Buffer A (50 mM Hepes pH 7.5, 50 mM NaCl, 5 mM MgCl2, and 1 mM THP) in 96-well V-bottom plates. The compound titrations were performed in a separate dilution plate by serially diluting the compounds in DMSO to make a 100x stock. Buffer A (89 uL) containing 33 nM of NAMPT protein was added to 1 uL of 100x compound …
Description: Biochemical Inhibition Assay: The NAMPT enzymatic reactions were carried out in Buffer A (50 mM Hepes pH 7.5, 50 mM NaCl, 5 mM MgCl2, and 1 mM THP) in 96-well V-bottom plates. The compound titrations were performed in a separate dilution plate by serially diluting the compounds in DMSO to make a 100x stock. […] The compound and enzyme mix was incubated for 15 minutes at room temperature, then 10 uL of 10x substrate and co-factors in Buffer A were added to the test well to make a final concentration of 1 uM NAM, 100 uM 5-Phospho-D-ribose 1-diphosphate (PRPP), and 2.5 mM Adenosine 5'-triphosphate (ATP). The reaction was allowed to proceed for 30 minutes at room temperature, then was quenched with the addition of 11 uL of a solution of formic acid and L-Cystathionine to make a final concentration of 1% formic acid and 10 uM L-Cystathionine.

Sequence of Nicotinamide phosphoribosyltransferase (P43490 whole entry): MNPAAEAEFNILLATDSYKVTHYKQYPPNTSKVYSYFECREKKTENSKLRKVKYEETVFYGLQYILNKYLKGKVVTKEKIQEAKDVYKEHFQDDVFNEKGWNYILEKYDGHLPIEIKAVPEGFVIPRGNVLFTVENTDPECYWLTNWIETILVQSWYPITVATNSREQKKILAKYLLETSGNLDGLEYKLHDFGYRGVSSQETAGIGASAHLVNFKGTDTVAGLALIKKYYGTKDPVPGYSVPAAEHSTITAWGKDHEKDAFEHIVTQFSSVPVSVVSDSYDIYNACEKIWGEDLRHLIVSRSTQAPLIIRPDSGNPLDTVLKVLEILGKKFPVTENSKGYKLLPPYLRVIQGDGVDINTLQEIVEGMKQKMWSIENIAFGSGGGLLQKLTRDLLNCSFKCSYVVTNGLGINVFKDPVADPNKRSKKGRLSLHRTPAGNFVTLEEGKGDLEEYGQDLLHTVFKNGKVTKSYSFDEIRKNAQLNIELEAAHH

IC50: 2.6 nM
SMILES: Cn1ncc2ccc(S(=O)(=O)c3ccc(NC(=O)/C=C/c4cccnc4)cc3)cc21
